Patent US20150210624A1, “DEUTERATED 4-HYDROXYBUTYRIC ACID ANALOGS” (Concert Pharmaceuticals, Inc., priority 2012, published 2015)
Structures can show the parent of a compound that is named as a salt.

Assays:
[1] = In vivo pharmacokinetic study in rats, oral dosing (Example 7); conditions: rat, 200 mg/kg PO; for AUC(0-inf) / Cmax / Tmax / half-life: in vivo, mean; for AUC0-∞ value relative to 4-hydroxybutyric acid, sodium salt: sodium salts
Description: In a separate study, the pharmacokinetics of exemplary compounds IV-a, IV-b and IV-d was determined by comparison with 4-hydroxybutyric acid by dosing the compounds in rats orally. The study design was the same as for Example 6, except that sampling time points were as follows: predose, 5 min, 15 min, 30 min, 1 hour, 2 hours, 3 hours, 4 hours, and 5 hours (the 5 hour levels were not included in the for PK calculations). The results of the in vivo studies are disclosed in the following table (Table 3): […]

[2] = In vivo pharmacokinetic study in rats, IV and PO dosing (Example 6); conditions: rat; for AUC(0-inf) / clearance / half-life / Vd / Cmax / Tmax / concentration at 4 hr / bioavailability / concentration at 2 hr: plasma; for Vd: read-out: Vz; for concentration at 4 hr: Cmin at 4 hr; for bioavailability: 200 mg/kg, PO vs IV AUC0-∞
Description: The pharmacokinetics of exemplary compounds was determined by comparison with 4-hydroxybutyric acid by dosing the compounds in rats according to the following study design and sampling procedure.
The results of the in vivo studies are disclosed in the following table (Table 2): […]

[3] = in humans; cited from earlier work
[4] = 200 mg/kg IV, mean, calculated up to 2 hr
[5] = 200 mg/kg PO, mean, calculated up to 4 hr
[6] = 200 mg/kg IV, mean, Cmin at 2 hr

Compound | AUC(0-inf) [1] [µg·h/mL] | Cmax [1] [µg/mL] | Tmax [1] [min] | half-life [1] [min] | AUC(0-inf) ([2]; 200 mg/kg IV, mean) [µg·h/mL] | clearance ([2]; 200 mg/kg IV, mean) [mL/min/kg] | half-life [2, 4] [min] | Vd ([2]; 200 mg/kg IV, mean) [L/kg] | AUC(0-inf) ([2]; 200 mg/kg PO, mean) [µg·h/mL] | Cmax ([2]; 200 mg/kg PO, mean) [µg/mL] | Tmax ([2]; 200 mg/kg PO, mean) [min] | concentration at 4 hr ([2]; 200 mg/kg PO, mean) [µg/mL] | half-life [2, 5] [min] | bioavailability [2] [%] | AUC0-∞ fold versus 4-hydroxybutyric acid, sodium salt [1] | Cmax fold versus 4-hydroxybutyric acid, sodium salt [1] | AUC0-∞ value relative to 4-hydroxybutyric acid, sodium salt [1] | concentration at 2 hr [2, 6] [µg/mL] | AUC0-∞ fold versus 4-hydroxybutyric acid, sodium salt ([2]; 200 mg/kg PO) | also measured
O=C(O)CCCO [4-hydroxybutyric acid, sodium salt, sodium salt of 4-hydroxybutyric acid, reference compound] | 165 | 94 | 47.4 | 60.6 | 427 | 8 | 15.6 | 0.2 | 170 | 150 | 30 | 2 | 36.6 | 40 |  |  |  |  |  | Cmin [2, 6]: 8′ ug/mL; half life [3]: 30 to 60 min
[2H]C([2H])(O)CCC(=O)O [IV-a, sodium salt] | 335 | 168 | 70.2 | 28.8 |  |  |  |  |  |  |  |  |  |  | (2.0X) | (1.8X) | considerably increased |  |  | 
[2H]C([2H])(O)CC([2H])([2H])C(=O)[O-].[Na+] [IV-b, sodium salt, Sodium 2,2,4,4-d4-4-hydroxybutanoate] | 407 | 201 | 90 | 27.6 | 651 | 5 | 37.8 | 0.3 | 260 | 151 | 37.8 | 5 | 56.4 | 40 | (2.5X) | (2.1X) | considerably increased | 76 | (+1.5X) | pharmacokinetic stability relative to 4-hydroxybutyric acid, sodium salt ([2]; from AUC0-∞ and t1/2 following IV administration): considerably increased
[2H]C([2H])(O)C([2H])([2H])C([2H])([2H])C(=O)O [IV-d, sodium salt] | 404 | 188 | 100 | 27.6 |  |  |  |  |  |  |  |  |  |  | (2.4X) | (2.0X) | considerably increased |  |  | 
[2H]C([2H])(CCO)C(=O)[O-].[Na+] [sodium 2,2-dideutero-4-hydroxybutanoate] |  |  |  |  | 476 | 7 | 19.8 | 0.2 | 193 | 153 | 37.8 | 1 | 35.4 | 41 |  |  |  | 19 | (+1.1X) | 
